The target of data set [1] is T1, BTK (Homo sapiens (Human), UniProt Q06187). Briefly: BTK target occupancy ELISA in Ramos B cells. Format: cell-based. Particulars: 2h incubation. On the procedure: Ramos B cells (ATCC, cat no. CRL-1923) were plated in 24-wells culture plates at 2×10^6 cells per well in a total volume of 900 μL DMEMF12+10% FBS+2 mM L-Glutamine+Pen/Strep. Allow the cells to rest 1 h at 5-7% CO2 and 37° C. Serial dilutions log 10 from 10 mM to 316 nM of test compounds are made in 100% DMSO, followed by a 100-fold dilution into culture medium. For each well, 100 μL was then transferred to well plate containing 900 μL of Ramos B cells. Final compound concentration range in the assay varied from 10 μM to 0.316 nM, with a final DMSO concentration of 0.1% and incubated at 5-7% CO2 and 37° C. for 2h. Afterwards, cells are collected for the measurement of the BTK target occupancy using the BTK target occupancy ELISA as outlined below. The percent of drug-bound BTK in Ramos B cell samples was determined by an ELISA based method as follows: OptiPlate 96-well plates (Perkin Elmer) were coated with 125 ng/well anti-BTK Ab (BD Biosciences) and blocked with BSA (Sigma-Aldrich). […] One hundred L/well of SuperSignal ELISA Femto Substrate (ThermoFisher Scientific) was added and then chemiluminescence was measured after 1 minute (EnVision® plate reader; PerkinElmer). The percent of BTK occupancy for each sample was calculated relative to the vehicle control. […] Ramos cells were incubated with a dose range of M27 and BTK target occupancy was determined by ELISA.
Target sequence in this assay (Q06187 whole entry): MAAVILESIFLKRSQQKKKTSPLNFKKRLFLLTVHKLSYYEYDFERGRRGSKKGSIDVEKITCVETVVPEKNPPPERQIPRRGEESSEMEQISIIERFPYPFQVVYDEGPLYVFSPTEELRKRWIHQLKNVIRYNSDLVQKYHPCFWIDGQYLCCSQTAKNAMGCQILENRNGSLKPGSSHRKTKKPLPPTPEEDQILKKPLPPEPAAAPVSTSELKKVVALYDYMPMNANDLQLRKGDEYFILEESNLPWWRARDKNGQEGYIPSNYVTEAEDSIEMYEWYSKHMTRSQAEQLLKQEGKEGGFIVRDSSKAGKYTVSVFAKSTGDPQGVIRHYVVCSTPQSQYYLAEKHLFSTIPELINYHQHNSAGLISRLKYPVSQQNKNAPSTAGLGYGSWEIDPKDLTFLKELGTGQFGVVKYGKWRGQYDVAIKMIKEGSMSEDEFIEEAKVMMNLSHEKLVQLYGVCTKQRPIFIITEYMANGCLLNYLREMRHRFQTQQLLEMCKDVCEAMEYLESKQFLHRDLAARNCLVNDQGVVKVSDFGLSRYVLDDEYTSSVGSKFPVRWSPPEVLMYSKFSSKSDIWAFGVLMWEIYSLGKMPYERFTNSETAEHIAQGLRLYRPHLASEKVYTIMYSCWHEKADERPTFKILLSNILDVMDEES
For orientation: An ELISA detects its analyte on a solid surface through an enzyme-linked reagent.

Another data set has as its target CYP2C8 (Homo sapiens (Human), UniProt P10632). The data set is described as follows: CYP inhibition, CYP2C8. Format: in vitro ADME.
A further data set addresses BLK (Homo sapiens (Human), UniProt P51451). The data set is described as follows: BLK Z'-LYTE kinase assay. Format: biochemical. Particulars: 1 h pre-incubation, Km ATP. On the procedure: (§1) BMX, TXK, EGFR, ERBB2, ERBB4, JAK3, BLK kinase activity was measured using the Z′-LYTE assay at Thermo Fisher. A 10-point dose response (final concentration in assay ranged from 10 μM to 0.5 nM in 3-fold dilution per dilution step) was generated with 1 h incubation of the test compound with the kinase prior to initiation of the kinase reaction by the addition of ATP. ATP concentration in the assay was Km ATP for the different kinases. IC50 values are determined by curve fitting of the experimental results at Thermo Fisher.

The nature of data set [2]: Clinical pharmacokinetics of acalabrutinib and its major metabolite. Format: in vivo, human. Particulars: human, in vivo; single oral dose of 100 mg acalabrutinib; read-out: median terminal elimination half-life (t½) (converted). An excerpt:
The compound of Formula (I) was identified as the major metabolite in plasma with a geometric mean exposure (AUC) approximately 2- to 3-fold higher than the exposure of acalabrutinib.
Acalabrutinib and the major metabolite form a covalent bond with a cysteine residue in the BTK active site, leading to inhibition of BTK enzymatic activity. Acalabrutinib binding with the cysteine residue occurs rapidly and irreversibly and provides high target occupancy at steady state.

For another data set, the target named is ERBB2 (Homo sapiens (Human), UniProt P04626). The data set is described as follows: ERBB2 Z'-LYTE kinase assay. Format: biochemical. As to conditions: 1 h pre-incubation, Km ATP. On the procedure: as §1
Data set [3] has as its target T1, BTK. Briefly: BTK inhibition in a biochemical assay, relative to acalabrutinib.
Target sequence in this assay (Q06187 whole entry, species assumed): as the sequence (Q06187 whole entry) above
Another data set deals with CYP2C19 (Homo sapiens (Human), UniProt P33261). Briefly: CYP inhibition, CYP2C19. Format: in vitro ADME.
In data set [4] the target is T1, BTK. The data set is described as follows: DiscoveRx Kd dose response, BTK. Format: binding. On the procedure: (§2) Kinase profiling was performed with M27 was done at DiscoveRx at a single dose of 1 μM on all available kinases (KINOMEscan). The overall kinase selectivity score is in Table 6. […] Kinases inhibited >65% at 1 μM for M27 were followed up with a dose response at DiscoveRx. The M27 had IC50 values <1 μM for almost the same set of kinases with exception of TXK, but with additional inhibition of BRK (PTK6).
Target sequence in this assay (Q06187 whole entry): as above

In the next data set the target is CYP2C9 (Homo sapiens (Human), UniProt P11712). Briefly: CYP inhibition, CYP2C9. Format: in vitro ADME.
For a further data set, the target named is TEC (Homo sapiens (Human), UniProt P42680). The data set is described as follows: DiscoveRx Kd dose response, TEC. Format: binding. On the procedure: as §2

Each structure is given as a SMILES string.

From US10858364B2, “Imidazopyrazine inhibitors of Bruton's tyrosine kinase” (Acerta Pharma B.V., priority 2016, dated 2020) come the findings set out here.

One may read the IC50 as the midpoint of a concentration-inhibition curve. A low value points to greater potency. One may read the half-life as the time needed for the level to fall by half in the phase considered. In general, Kd refers to the concentration at which binding is half-saturated.

CYP2C19, sequence (P33261 whole entry): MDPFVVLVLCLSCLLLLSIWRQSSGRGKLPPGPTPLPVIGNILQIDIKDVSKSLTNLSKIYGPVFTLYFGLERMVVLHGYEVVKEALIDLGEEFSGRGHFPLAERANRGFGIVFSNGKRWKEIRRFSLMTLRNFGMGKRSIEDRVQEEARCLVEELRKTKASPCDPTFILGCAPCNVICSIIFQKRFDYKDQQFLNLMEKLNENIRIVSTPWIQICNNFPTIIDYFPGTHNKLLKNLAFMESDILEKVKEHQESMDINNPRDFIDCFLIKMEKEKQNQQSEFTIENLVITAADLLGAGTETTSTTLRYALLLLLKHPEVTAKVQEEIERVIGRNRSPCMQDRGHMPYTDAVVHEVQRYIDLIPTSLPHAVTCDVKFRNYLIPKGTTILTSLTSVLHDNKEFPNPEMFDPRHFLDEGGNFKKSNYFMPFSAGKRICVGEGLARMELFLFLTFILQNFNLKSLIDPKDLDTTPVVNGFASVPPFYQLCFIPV
TEC, sequence (P42680 whole entry): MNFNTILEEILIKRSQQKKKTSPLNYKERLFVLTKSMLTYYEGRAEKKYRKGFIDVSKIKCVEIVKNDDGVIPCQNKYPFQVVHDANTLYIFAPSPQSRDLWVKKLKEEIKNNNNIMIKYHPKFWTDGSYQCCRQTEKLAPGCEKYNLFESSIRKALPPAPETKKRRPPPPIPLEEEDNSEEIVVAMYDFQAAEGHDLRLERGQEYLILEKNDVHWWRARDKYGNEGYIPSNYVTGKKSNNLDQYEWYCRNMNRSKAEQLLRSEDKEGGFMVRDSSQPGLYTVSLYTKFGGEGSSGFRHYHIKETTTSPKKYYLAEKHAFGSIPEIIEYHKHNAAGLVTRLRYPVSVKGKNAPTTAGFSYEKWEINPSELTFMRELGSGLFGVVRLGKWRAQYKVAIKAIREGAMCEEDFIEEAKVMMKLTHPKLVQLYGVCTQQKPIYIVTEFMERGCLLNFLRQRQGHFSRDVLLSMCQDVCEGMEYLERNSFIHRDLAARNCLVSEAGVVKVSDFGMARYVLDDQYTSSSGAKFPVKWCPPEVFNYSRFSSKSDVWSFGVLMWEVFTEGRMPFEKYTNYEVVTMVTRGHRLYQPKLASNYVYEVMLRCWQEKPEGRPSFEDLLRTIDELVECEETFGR
BLK, sequence (P51451 whole entry): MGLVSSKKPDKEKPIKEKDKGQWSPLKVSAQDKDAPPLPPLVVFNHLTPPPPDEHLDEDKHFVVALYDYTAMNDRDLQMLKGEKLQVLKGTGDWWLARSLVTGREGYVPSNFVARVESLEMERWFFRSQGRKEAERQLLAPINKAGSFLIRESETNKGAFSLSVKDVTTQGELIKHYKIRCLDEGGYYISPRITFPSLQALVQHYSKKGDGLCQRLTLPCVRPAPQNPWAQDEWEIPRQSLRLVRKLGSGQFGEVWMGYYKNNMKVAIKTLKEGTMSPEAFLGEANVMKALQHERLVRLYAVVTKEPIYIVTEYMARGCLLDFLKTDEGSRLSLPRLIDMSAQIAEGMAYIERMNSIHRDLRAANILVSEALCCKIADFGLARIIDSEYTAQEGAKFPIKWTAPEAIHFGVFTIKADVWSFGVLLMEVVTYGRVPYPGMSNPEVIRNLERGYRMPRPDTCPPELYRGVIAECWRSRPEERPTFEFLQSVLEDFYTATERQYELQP
CYP2C8, sequence (P10632 whole entry): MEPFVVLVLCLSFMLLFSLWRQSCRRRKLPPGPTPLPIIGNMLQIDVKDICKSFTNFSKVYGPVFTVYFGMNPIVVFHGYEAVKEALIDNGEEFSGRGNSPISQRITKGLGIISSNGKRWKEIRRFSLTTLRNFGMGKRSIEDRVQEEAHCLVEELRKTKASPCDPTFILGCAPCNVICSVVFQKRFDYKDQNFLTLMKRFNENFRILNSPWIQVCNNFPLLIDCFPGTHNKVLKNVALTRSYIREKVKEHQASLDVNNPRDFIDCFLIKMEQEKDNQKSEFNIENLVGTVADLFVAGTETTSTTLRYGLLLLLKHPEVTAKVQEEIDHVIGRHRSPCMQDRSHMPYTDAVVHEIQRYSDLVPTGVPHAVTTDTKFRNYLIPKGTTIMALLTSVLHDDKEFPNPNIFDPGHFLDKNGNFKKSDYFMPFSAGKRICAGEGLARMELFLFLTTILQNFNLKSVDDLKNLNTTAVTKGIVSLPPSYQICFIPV
CYP2C9, sequence (P11712 whole entry): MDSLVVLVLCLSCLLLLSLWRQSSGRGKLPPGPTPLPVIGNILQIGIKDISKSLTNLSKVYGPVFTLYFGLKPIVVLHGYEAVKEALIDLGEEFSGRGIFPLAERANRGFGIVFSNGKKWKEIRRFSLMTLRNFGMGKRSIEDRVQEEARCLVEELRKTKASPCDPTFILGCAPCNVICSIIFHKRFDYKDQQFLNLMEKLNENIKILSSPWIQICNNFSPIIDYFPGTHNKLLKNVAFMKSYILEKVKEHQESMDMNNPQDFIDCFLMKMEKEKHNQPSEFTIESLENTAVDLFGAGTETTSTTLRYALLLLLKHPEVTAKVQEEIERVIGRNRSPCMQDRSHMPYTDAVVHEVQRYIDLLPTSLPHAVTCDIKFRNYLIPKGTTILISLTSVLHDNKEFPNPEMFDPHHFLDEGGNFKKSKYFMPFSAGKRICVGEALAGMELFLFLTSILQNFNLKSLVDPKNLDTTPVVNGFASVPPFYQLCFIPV
ERBB2, sequence (P04626 23-1255): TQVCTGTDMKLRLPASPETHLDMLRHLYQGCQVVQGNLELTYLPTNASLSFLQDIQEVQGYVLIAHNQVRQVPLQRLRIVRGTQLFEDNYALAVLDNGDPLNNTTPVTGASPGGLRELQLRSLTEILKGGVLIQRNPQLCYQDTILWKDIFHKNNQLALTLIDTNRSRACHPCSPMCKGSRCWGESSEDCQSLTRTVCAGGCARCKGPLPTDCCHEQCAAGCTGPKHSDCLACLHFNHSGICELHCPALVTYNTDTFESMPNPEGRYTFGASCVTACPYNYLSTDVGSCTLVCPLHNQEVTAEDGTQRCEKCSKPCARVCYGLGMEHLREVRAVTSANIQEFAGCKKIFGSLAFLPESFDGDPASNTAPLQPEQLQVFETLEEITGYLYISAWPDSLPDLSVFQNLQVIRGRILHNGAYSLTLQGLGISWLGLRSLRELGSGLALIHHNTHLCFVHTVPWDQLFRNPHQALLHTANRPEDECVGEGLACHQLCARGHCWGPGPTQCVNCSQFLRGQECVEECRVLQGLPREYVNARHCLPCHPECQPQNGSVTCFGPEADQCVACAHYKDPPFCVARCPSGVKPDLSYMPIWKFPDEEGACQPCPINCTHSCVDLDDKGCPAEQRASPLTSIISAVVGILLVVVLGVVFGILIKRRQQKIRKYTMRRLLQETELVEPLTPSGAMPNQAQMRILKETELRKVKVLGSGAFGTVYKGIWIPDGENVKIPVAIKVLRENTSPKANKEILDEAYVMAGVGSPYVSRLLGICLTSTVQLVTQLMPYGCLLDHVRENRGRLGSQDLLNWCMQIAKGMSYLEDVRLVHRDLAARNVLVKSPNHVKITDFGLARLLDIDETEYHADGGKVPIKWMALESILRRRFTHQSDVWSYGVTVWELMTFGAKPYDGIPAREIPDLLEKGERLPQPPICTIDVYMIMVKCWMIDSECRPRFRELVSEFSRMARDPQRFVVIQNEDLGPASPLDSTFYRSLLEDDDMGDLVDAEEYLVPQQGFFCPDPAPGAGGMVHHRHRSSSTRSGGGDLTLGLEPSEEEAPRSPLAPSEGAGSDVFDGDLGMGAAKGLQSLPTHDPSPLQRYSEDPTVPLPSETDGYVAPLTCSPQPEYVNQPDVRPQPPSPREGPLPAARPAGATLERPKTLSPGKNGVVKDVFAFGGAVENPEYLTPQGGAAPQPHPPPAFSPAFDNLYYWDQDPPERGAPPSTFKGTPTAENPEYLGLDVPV

`CC#CC(=O)NCCCC(=O)c1nc(-c2ccc(C(=O)Nc3ccccn3)cc2)c2c(N)nccn12` [Formula (I), 4-(8-amino-3-(4-(but-2-ynamido)butanoyl)imidazo[1,5-a]pyrazin-1-yl)-N-(pyridin-2-yl)benzamide]: the IC50 is 0.039 µM against BTK [1], 6.17 ± 3.35 µM on BLK and 0.552 ± 0.166 µM against ERBB2. Further, the CYP2C8 inhibition result at CYP2C8 is reported as “weak inhibitor”. For the same molecule, the half-life in data set [2] is 6.9 h. Moreover, on BTK [3], the “less potent than acalabrutinib with regard to BTK inhibition” value was “approximately 50%”. In addition, on CYP2C19, the CYP2C19 inhibition entry is reported as “weak inhibitor”. Besides, the Kd on BTK [4] was 0.029 µM; at TEC it was 0.04 µM. The CYP2C9 inhibition result on CYP2C9 is “weak inhibitor”.
